In ChEMBL document CHEMBL1123744, “A quantitative structure-activity relationship analysis of some 4-aminodiphenyl sulfone antibacterial agents using linear free energy and molecular modeling methods” (J Med Chem, 1987):

Test system: Mycobacterium lufu
Assay: In vitro inhibition of Mycobacterium lufu dihydopterate synthase.

Row | pC | SMILES
1 | 5.71 | CCCNc1ccc(S(=O)(=O)c2ccc(N)cc2)c(O)c1
2 | 5.92 | Nc1ccc(S(=O)(=O)c2ccc(N)cc2)cc1
3 | 5.4 | CCCNc1ccc(S(=O)(=O)c2ccc(N)cc2)cc1OC
4 | 6.19 | Cc1cc(N)ccc1S(=O)(=O)c1ccc(N)cc1
5 | 5.65 | N#Cc1cc(N)ccc1S(=O)(=O)c1ccc(N)cc1
6 | 4.51 | Nc1ccc(S(=O)(=O)c2ccc([N+](=O)[O-])cc2)cc1
7 | 5.7 | CCNc1ccc(S(=O)(=O)c2ccc(N)cc2)cc1O
8 | 5.09 | Cc1ccc(S(=O)(=O)c2ccc(N)cc2)cc1
9 | 6.32 | Nc1ccc(S(=O)(=O)c2ccc(N)cc2Cl)cc1
10 | 5.61 | Nc1ccc(S(=O)(=O)c2ccccc2[N+](=O)[O-])cc1
11 | 5.44 | Nc1ccc(S(=O)(=O)c2ccc(C(=O)O)cc2)cc1
12 | 5.99 | CCCCNc1ccc(S(=O)(=O)c2ccc(N)cc2)c(OC)c1
13 | 5.56 | CCNc1ccc(S(=O)(=O)c2ccc(N)cc2)cc1
14 | 5.65 | Nc1ccc(S(=O)(=O)c2ccccc2N)cc1
15 | 5.49 | CCNc1ccc(S(=O)(=O)c2ccc(N)cc2)cc1OC
16 | 4.89 | Nc1ccc(S(=O)(=O)c2ccc(Cl)cc2)cc1
17 | 5.75 | CCNc1ccc(S(=O)(=O)c2ccc(N)cc2)c(OC)c1
18 | 6.14 | CCNc1ccc(S(=O)(=O)c2ccc(N)cc2)c(O)c1

Row | pC | SMILES
19 | 5.89 | CNc1ccc(S(=O)(=O)c2ccc(N)cc2)cc1
20 | 5.56 | COc1cc(S(=O)(=O)c2ccc(N)cc2)ccc1N
21 | 4.93 | Nc1ccc(S(=O)(=O)c2ccc([N+](=O)[O-])cc2N)cc1
22 | 4.93 | COC(=O)c1ccc(S(=O)(=O)c2ccc(N)cc2)cc1
23 | 5.73 | COc1cc(N)ccc1S(=O)(=O)c1ccc(N)cc1
24 | 5.64 | CCCNc1ccc(S(=O)(=O)c2ccc(N)cc2)cc1O
25 | 4.9 | NNC(=O)c1ccc(S(=O)(=O)c2ccc(N)cc2)cc1
26 | 5.92 | CCCNc1ccc(S(=O)(=O)c2ccc(N)cc2)c(OC)c1
27 | 5.15 | CC(=O)Nc1ccc(S(=O)(=O)c2ccc(N)cc2)cc1
28 | 6.06 | Nc1ccc(S(=O)(=O)c2ccc(NCC(=O)O)cc2)cc1
29 | 4.92 | Nc1ccc(S(=O)(=O)c2ccccc2)cc1
30 | 5.75 | CN(C)c1ccc(S(=O)(=O)c2ccc(N)cc2)cc1
31 | 5.65 | COC(=O)CNc1ccc(S(=O)(=O)c2ccc(N)cc2)cc1
32 | 5.12 | COc1ccc(S(=O)(=O)c2ccc(N)cc2)cc1
33 | 5.82 | Nc1ccc(S(=O)(=O)c2ccc(O)cc2)cc1
34 | 5.87 | Nc1ccc(S(=O)(=O)c2ccc(N)cc2[N+](=O)[O-])cc1
35 | 6.07 | Nc1ccc(S(=O)(=O)c2ccc(N)c(O)c2)cc1
36 | 5.99 | Nc1ccc(S(=O)(=O)c2ccc(N)cc2N)cc1
